According to patent US10130668B2, “Composition comprising Dendropanax morbifera extract or compound derived therefrom as active ingredient for preventing and treating benign prostatic hyperplasia” (priority 2012, dated 2018):
Several values for one entry are separate records, joined by “and”; a condition that tells them apart may be missing. Equal entries are not always repeated. Entries after “also recorded” stand apart in the source; their conditions may differ.

Assays:
[1] = system: PSA (prostate specific antigen) mRNA, AR target gene; assay: PSA mRNA expression in LNCaP⋅FGC cells; details: 48 hours
Experimental: For the analysis of anti-androgen activity, the LNCaP⋅FGC cells, an androgen-dependent prostate cancer cell line, were used and the level of mRNA of PSA (Prostate specific antigen), which is one of the AR target genes, in prostate cancer was measured.

[2] = system: mouse model with benign prostatic hyperplasia; assay: Prostate size in testosterone-induced benign prostatic hyperplasia animal model; format: in vivo, Sprague Dawley mice
Experimental: First of all, the animals used for experiments were 11-week old male Sprague Dawley mice, which were purchased from Damul Science Co. (Daejeon, Republic of Korea). […] As a positive control group, the finasteride (2 mg/kg/day) was used and the Dendropanax morbifera extract was administered for 2 groups (0.5 and 2 mg/kg). 3 weeks after the drug administration, the mice were sacrificed and the results were observed. V, vehicle administration group; CTL, control group; TP, testosterone-propionate administration group; FS, finasteride administration group; […] CMC, carboxymethylcellulose administration group. […] From the previously described experiment schedule, blood and prostate were collected after measuring the body weight and sacrificing on the day after the last day of administration. The weight of removed prostate was measured after removing the surrounding fats and foreign substances and the weight ratio of prostate to body was calculated by the following equation and the result is listed in Table 4.

[3] = system: PSA (prostate specific antigen); assay: PSA content in blood of benign prostatic hyperplasia animal model (ELISA); format: in vivo, Sprague Dawley mice; details: TP + drug 2 mg/kg
From the text: First of all, the animals used for experiments were 11-week old male Sprague Dawley mice, which were purchased from Damul Science Co. (Daejeon, Republic of Korea). They were provided with hard food and water frequently and were used in experiments after a week of adaptation period for laboratory environment and the animal experiments conducted herein were approved by Chonnam National University animal experiment ethics committee (IRB) (CNU IACUC-YB-R-2012-9).
The male Sprague Dawley mice were divided into the groups such as vehicle control group (V-CTL) that is an experimental group, the group administered with testosterone only (TP-CTL), the group administered with finasteride as positive control for testosterone (TP+FS) and the groups administered with Dendropanax morbifera (TP+DMH), and for each group, n was equal to 4 and overall experimental procedure is as illustrated in Table 3. […] As a positive control group, the finasteride (2 mg/kg/day) was used and the Dendropanax morbifera extract was administered for 2 groups (0.5 and 2 mg/kg).
From the sacrificed mouse in the above example, the plasma was isolated from blood and the content of PSA was determined. PSA measurement was conducted using ELISA (MyBiosource, Arizona, USA) according to the manufacturer's experimental protocol and presented as pg/mL content.

Compound: C=C[C@H](O)C#CC#CC=CC(O)CCCCCCCC(=O)O (stereo partly drawn) [HS3, 9,16S-dihydroxy-10,17-octadecadiene-12,14-diynoic acid]
- mRNA expression of PSA [1]: inhibit

Compound: CC(C)(C)NC(=O)[C@H]1CC[C@H]2[C@@H]3CC[C@H]4NC(=O)C=C[C@]4(C)[C@H]3CC[C@]12C [FS, finasteride]
- Weight of prostate ([2]; TP 3 mg/kg s.c. + drug 2 mg/kg p.o. daily for 3 weeks): 0.95 ± 0.12 g
- prostate %/body weight (w/w) ([2]; TP + drug 2 mg/kg p.o.): *0.22 ± 0.018%
- % TP-CTL ratio ([2]; TP + drug 2 mg/kg p.o., relative to testosterone-only control): 74.3% and 74.3 ± 3.2%
- % V-CTL ratio ([2]; TP + drug 2 mg/kg p.o., relative to vehicle control): 185.7 ± 15.1%
- % Vehicle control ([3]; blood PSA): 18.7 ± 5.0%
- % TP control ([3]; blood PSA, relative to TP (3 mg/kg) only): 34.6%
- PSA ([3]; plasma): *323.0 ± 85.0 pg/mL

Compound: C=CC(O)C#CC#CC=C[C@H](O)CCCCCCCC(=O)O (stereo partly drawn) [HS5, 9,16R-dihydroxy-10,17-octadecadiene-12,14-diynoic acid]
- mRNA expression of PSA [1]: inhibit

Compound: C=CC(O)C#CC#CC/C=C\CCCCCCCC(=O)O (stereo not shown) [HS7, (9Z)-16-hydroxy-9,17-octadecadiene-12,14-diynoic acid]
- mRNA expression of PSA [1]: inhibit; also recorded: most effective
